In assay [1] the target is T1, rAde1R (Rattus norvegicus, UniProt Q7TN49).
T1 construct: expressed in transfected cells; host or cells: 1321N1 human astrocytoma cells
T1 sequence (Q7TN49 1-304): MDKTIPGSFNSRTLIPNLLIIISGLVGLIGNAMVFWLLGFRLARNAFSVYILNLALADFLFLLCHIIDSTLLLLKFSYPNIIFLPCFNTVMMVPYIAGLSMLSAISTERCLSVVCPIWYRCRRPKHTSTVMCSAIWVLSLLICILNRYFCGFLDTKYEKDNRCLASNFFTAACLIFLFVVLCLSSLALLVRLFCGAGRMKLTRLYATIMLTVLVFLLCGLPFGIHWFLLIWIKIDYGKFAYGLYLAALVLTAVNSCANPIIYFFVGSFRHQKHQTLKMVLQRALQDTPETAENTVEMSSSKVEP
Nature of the assay: cAMP-dependent luciferase assay, inhibition of isoproterenol-stimulated cAMP accumulation. It is filed as cell-based. The procedure: (§1) 1321N1 cells stably expressing the rAde1R were cultured in DMEM supplemented with 10% (v/v) FCS, L-glutamine (2 mM), penicillin (100 U/ml), streptomycin (100 U/ml) and 400 μg/ml G 418 at 37° C. under a humidified atmosphere containing 5% CO2. Cells were cultured in 75 cm^2 flasks (3.2×10^5) for 24 h without antibiotics so that they were 90-95% confluent before transfection. The cAMP responsive reporter plasmid (pCER-luc) or serum response element (pSRE-luc) was transfected into 1321N1 cells expressing rat adenine receptors using Lipofectamine 2000 as a transfection reagent.
Reporter cells were seeded at a density of […] cells/well in a 24-well plate 18-20 hr prior to assay. After removal of culture medium, cells were washed twice with Hanks' balanced salt solution (containing 20 mM HEPES, pH 7.3). Adenine and selected adenine derivatives were diluted in Hanks' balanced salt solution containing 3 nM isoproterenol and then incubated with reporter cells in the same buffer for 3 h at 37° C. The reaction was stopped by removal of the reaction buffer and the luciferase expression was determined using Bright-Glo™ Luciferase assay system (Promega) as described in the kit protocol. Plates were shaken for 2 min to ensure complete lysis of cells. Then the total volume from each well was transferred to a white 96-well plate (Greiner bio-one). Luminescence was determined using a NOVOstar microplate reader (BMG labtech); each well was counted for 2 s at 20° C.

The target of assay [2] is T1, rAde1R. Briefly: Erk phosphorylation assay (SRE-dependent luciferase), 1321N1 cells expressing rAde1R. Conditions: 1321N1 astrocytoma cells stably expressing rAde1R, 6 h. The assay is classed as cell-based. The procedure:
as §1
Erk phosphorylation was investigated by a gene reporter assay measuring SRE-dependent luciferase activity in astrocytoma cells stably transfected with the rat adenine receptor. The cells were seeded in a 24-well plate prior to the assay. The culture medium was removed and cells were washed twice with Hanks' balanced salt solution without HEPES, pH 7.3. Adenine was diluted in the same buffer and then added to the cells, which were incubated for 6 h at 37° C. The reaction was stopped by removal of the reaction buffer and the luciferase expression was determined as described before.

The target of assay [3] is T1, rAde1R. Conditions: literature, Gorzalka et al. 2005; cited from earlier work.
The test system of assay [4] is non-transfected 1321N1 astrocytoma cells. Briefly: Erk phosphorylation assay (SRE-dependent luciferase), non-transfected cells. It is filed as cell-based, human. The note with it: 6 h.

One may read the EC50 as the concentration at which the effect is half-maximal. What is called Ki is a dissociation constant, usually derived from enzyme kinetics or from competition with a known ligand. Turning to `Nc1ncnc2nc[nH]c12` [adenine], the EC50 at rAde1R [1] (in the absence of compound 9) turned out to be 2.24 ± 1.83 nM; at rAde1R [1] (in the presence of compound 9 (10 μM)), 115 ± 42 nM. Further, the results for the “SRE-dependent luciferase expression / erk phosphorylation” value (at rAde1R [2]; in assay [4]) were “dose-dependent stimulation of erk phosphorylation” and “no effect”, respectively. In addition, the Ki at rAde1R [3] is 29.9 nM.

Source of the values: patent US20110288106A1, “ADENINE RECEPTOR LIGANDS” (Rheinische Friedrich-Wilhelms-Universitaet Bonn …, priority 2008, published 2011).
